Converted amounts (≈) assume the structure as drawn.
Columns and labels:
[1] = system: VERO green monkey kidney cells; assay: VERO mammalian cell toxicity assay; assay type: cell-based; conditions: Chlorocebus sabaeus; inhibition of growth of VERO green monkey kidney epithelial cells
[2] = system: Mycobacterium tuberculosis (strain H37Rv); assay: MABA minimum inhibitory concentration assay (aerobic/replicating); assay type: cell-based; conditions: M.tb H37Rv; for MIC90: Mycobacterium tuberculosis, aerobic/replicating, 90% inhibition of growth; for anti-mycobacterial activity in words: MABA/LORA
[3] = system: Mycobacterium tuberculosis (strain H37Rv); assay: LORA minimum inhibitory concentration assay (low-oxygen/non-replicating); conditions: M.tb H37Rv, 90% inhibition of growth
[4] = Microsomal stability, mouse liver microsomes; assay type: in vitro ADME
Method: (§1) Assays were performed by WuXi AppTec (Shanghai) Co., Ltd. The test compounds (Table 4) (at 1 μM) were incubated at 37 °C with liver microsomes from human or CD-1 mice in the presence of a NADPH regenerating system and phosphate buffer (100 mM, pH 7.4) at 0.5 mg/mL microsomal protein (the positive controls were testosterone, propafenone, and diclofenac). Samples were removed at time intervals of 0, 5, 10, 20, 30, and 60 min and immediately mixed with cold CH3CN (containing 0.1 μg/mL of tolbutamide as an internal standard) and then centrifuged prior to analysis by LCMS/MS.

[5] = Microsomal stability, human liver microsomes; assay type: in vitro ADME; conditions: pH 7.4
Method: as §1

[6] = CD-1, mouse, microsomes, pH 7.4

Row | Structure (SMILES) | IC50 [1] [µg/mL] | MIC90 [2] [µg/mL] | MIC90 LORA [3] [µg/mL] | melting point [°C] | anti-mycobacterial activity in words [2] | CLint scaled at 1 μM [4, 6] [mL/min/kg] | half-life at 1 μM [4, 6] [h] | microsomal CLint at 1 μM ([4]; CD-1, pH 7.4, mouse liver microsomes, read-out: MLM Clint(mic)) [µL/min/mg] | CLint scaled at 1 μM ([5]; human, microsomes) [mL/min/kg] | half-life at 1 μM ([5]; human, microsomes) [h] | microsomal CLint at 1 μM ([5]; human liver microsomes, read-out: HLM Clint(mic)) [µL/min/mg]
1 | Cc1cccc(-c2cnn3c(NCc4ccccn4)cc(-c4ccccc4)nc23)c1 [Compound 15, 5-Phenyl-N-(pyridin-2-ylmethyl)-3-(m-tolyl)pyrazolo[1,5-a]pyrimidin-7-amine] | > 32 | > 32 | 30 (≈ 76.6 µM) | 172 to 174 |  |  |  |  |  |  | 
2 | COc1cccc(-c2cnn3c(NCc4ccccn4)cc(-c4ccccc4)nc23)c1 [Compound 16, 3-(3-Methoxyphenyl)-5-phenyl-N-(pyridin-2-ylmethyl)pyrazolo[1,5-a]pyrimidin-7-amine] | > 32 | 7.6 (≈ 18.7 µM) | 10 (≈ 24.5 µM) | 122 to 124 |  |  |  |  |  |  | 
3 | FC(F)(F)c1cccc(-c2cnn3c(NCc4ccccn4)cc(-c4ccccc4)nc23)c1 [Compound 17, 5-Phenyl-N-(pyridin-2-ylmethyl)-3-(3-(trifluoromethyl)phenyl)pyrazolo[1,5-a]pyrimidin-7-amine] | > 32 | > 32 | >32 | 156 to 158 |  |  |  |  |  |  | 
4 | Cc1ccc(-c2cnn3c(NCc4ccccn4)cc(-c4ccccc4)nc23)cc1 [Compound 19, 5-Phenyl-N-(pyridin-2-ylmethyl)-3-(p-tolyl)pyrazolo[1,5-a]pyrimidin-7-amine] | > 32 | > 32 | >32 | 172 to 174 | inactive |  |  |  |  |  | 
5 | FC(F)(F)c1ccc(-c2cnn3c(NCc4ccccn4)cc(-c4ccccc4)nc23)cc1 [Compound 21, 5-Phenyl-N-(pyridin-2-ylmethyl)-3-(4-(trifluoromethyl)phenyl)pyrazolo[1,5-a]pyrimidin-7-amine] | > 32 | > 32 | >32 | 188 to 190 | inactive |  |  |  |  |  | 
6 | CCc1cc(NCc2ccccn2)n2ncc(-c3ccc(F)cc3)c2n1 [Compound 23, 5-Ethyl-3-(4-fluorophenyl)-N-(pyridin-2-ylmethyl)pyrazolo[1,5-a]pyrimidin-7-amine] | 14.1 (≈ 40.6 µM) | 1.4 (≈ 4.03 µM) | 0.45 (≈ 1.3 µM) | 137 to 138 |  |  |  |  |  |  | 
7 | Fc1ccc(-c2cnn3c(NCc4cccc(F)n4)cc(-c4ccccc4)nc23)cc1 [Compound 45, 3-(4-Fluorophenyl)-N-((6-fluoropyridin-2-yl)methyl)-5-phenylpyrazolo[1,5-a]pyrimidin-7-amine] | > 32 | > 32 | >32 | 196 to 198 |  |  |  |  |  |  | 
8 | Fc1ccc(-c2cnn3c(NCc4cccc(Br)n4)cc(-c4ccccc4)nc23)cc1 [Compound 46, N-((6-Bromopyridin-2-yl)methyl)-3-(4-fluorophenyl)-5-phenylpyrazolo[1,5-a]pyrimidin-7-amine] | > 32 | > 32 | >32 | 160 to 161 |  |  |  |  |  |  | 
9 | Cc1cccc(CNc2cc(-c3ccccc3)nc3c(-c4ccc(F)cc4)cnn23)n1 [Compound 47, 3-(4-Fluorophenyl)-N-((6-methylpyridin-2-yl)methyl)-5-phenylpyrazolo[1,5-a]pyrimidin-7-amine] | > 32 | > 32 | >32 | 177 to 180 |  |  |  |  |  |  | 
10 | COc1cccc(CNc2cc(-c3ccccc3)nc3c(-c4ccc(F)cc4)cnn23)n1 [Compound 48, 3-(4-Fluorophenyl)-N-((6-methoxypyridin-2-yl)methyl)-5-phenylpyrazolo[1,5-a]pyrimidin-7-amine] | > 32 | > 32 | >32 | 163 to 165 |  |  |  |  |  |  | 
11 | CN(C)c1cccc(CNc2cc(-c3ccccc3)nc3c(-c4ccc(F)cc4)cnn23)n1 [Compound 49, N-((6-(Dimethylamino)pyridin-2-yl)methyl)-3-(4-fluorophenyl)-5-phenylpyrazolo[1,5-a]pyrimidin-7-amine] | > 32 | 1.39 (≈ 3.17 µM) | 0.40 (≈ 0.912 µM) | 151 to 153 |  |  |  |  |  |  | 
12 | Fc1ccc(-c2cnn3c(NCc4cccc(N5CCCCC5)n4)cc(-c4ccccc4)nc23)cc1 [Compound 50, 3-(4-Fluorophenyl)-5-phenyl-N-((6-(piperidin-1-yl)pyridin-2-yl)methyl)pyrazolo[1,5-a]pyrimidin-7-amine] | > 32 | 0.25 (≈ 0.522 µM) | 1.75 (≈ 3.66 µM) | 185 to 187 |  |  |  |  |  |  | 
13 | COc1ccc(CNc2cc(-c3ccccc3)nc3c(-c4ccc(F)cc4)cnn23)nc1 [Compound 54, 3-(4-Fluorophenyl)-N-((5-methoxypyridin-2-yl)methyl)-5-phenylpyrazolo[1,5-a]pyrimidin-7-amine] | > 32 | 3.6 (≈ 8.46 µM) | 1.3 (≈ 3.06 µM) | 212 to 214 |  | < 38 | > 2.42 | < 9.6 | < 8.6 | > 2.42 | < 9.6
14 | Fc1ccc(-c2cnn3c(NCc4ccc(N5CCCCC5)cn4)cc(-c4ccccc4)nc23)cc1 [Compound 59, 3-(4-Fluorophenyl)-5-phenyl-N-((5-(piperidin-1-yl)pyridin-2-yl)methyl)pyrazolo[1,5-a]pyrimidin-7-amine] | > 32 | 0.96 (≈ 2.01 µM) | 0.85 (≈ 1.78 µM) | 179 to 182 |  |  |  |  |  |  | 
15 | Fc1ccc(-c2cnn3c(NCc4cc(Cl)ccn4)cc(-c4ccccc4)nc23)cc1 [Compound 60, N-((4-Chloropyridin-2-yl)methyl)-3-(4-fluorophenyl)-5-phenylpyrazolo[1,5-a]pyrimidin-7-amine] | > 32 | > 32 | >32 | 220 to 222 | inactive |  |  |  |  |  | 
16 | N#Cc1ccnc(CNc2cc(-c3ccccc3)nc3c(-c4ccc(F)cc4)cnn23)c1 [Compound 61, 2-(((3-(4-Fluorophenyl)-5-phenylpyrazolo[1,5-a]pyrimidin-7-yl)amino)methyl)isonicotinonitrile] | > 32 | > 32 | >32 | 233 to 236 | inactive |  |  |  |  |  | 
17 | Fc1ccc(-c2cnn3c(NCc4cc(N5CCCC5)ccn4)cc(-c4ccccc4)nc23)cc1 [Compound 64, 3-(4-Fluorophenyl)-5-phenyl-N-((4-(pyrrolidin-1-yl)pyridin-2-yl)methyl)pyrazolo[1,5-a]pyrimidin-7-amine] | 16 (≈ 34.4 µM) | 0.47 (≈ 1.01 µM) | 0.94 (≈ 2.02 µM) | 221 to 223 |  |  |  |  |  |  | 
18 | CN1CCN(c2ccnc(CNc3cc(-c4ccccc4)nc4c(-c5ccc(F)cc5)cnn34)c2)CC1 [Compound 65, 3-(4-Fluorophenyl)-N-((4-(4-methylpiperazin-1-yl)pyridin-2-yl)methyl)-5-phenylpyrazolo[1,5-a]pyrimidin-7-amine] | 10.7 (≈ 21.7 µM) | 0.09 (≈ 0.182 µM) | 0.73 (≈ 1.48 µM) | 203 to 205 |  |  |  |  |  |  | 
19 | Fc1ccc(-c2cnn3c(NCc4cc(N5CCOCC5)ccn4)cc(-c4ccccc4)nc23)cc1 [Compound 66, 3-(4-Fluorophenyl)-N-((4-morpholinopyridin-2-yl)methyl)-5-phenylpyrazolo[1,5-a]pyrimidin-7-amine] | > 32 | 0.06 (≈ 0.125 µM) | 0.98 (≈ 2.04 µM) | 208 |  |  |  |  |  |  | 
20 | CN(C)CCN(C)c1ccnc(CNc2cc(-c3ccccc3)nc3c(-c4ccc(F)cc4)cnn23)c1 [Compound 67, N1-(2-(((3-(4-Fluorophenyl)-5-phenylpyrazolo[1,5-a]pyrimidin-7-yl)amino)methyl)pyridin-4-yl)-N1,N2,N2-trimethylethane-1,2-diamine] | 9.9 (≈ 20 µM) | 1.7 (≈ 3.43 µM) | 1.5 (≈ 3.03 µM) | 158 to 160 |  |  |  |  |  |  | 
21 | CN(C)c1cccnc1CNc1cc(-c2ccccc2)nc2c(-c3ccc(F)cc3)cnn12 [Compound 69, N-((3-(Dimethylamino)pyridin-2-yl)methyl)-3-(4-fluorophenyl)-5-phenylpyrazolo[1,5-a]pyrimidin-7-amine] | > 32 | 1.5 (≈ 3.42 µM) | 0.49 (≈ 1.12 µM) | 167 to 170 |  |  |  |  |  |  | 
22 | Fc1ccc(-c2cnn3c(NCc4ncccc4F)cc(-c4ccccc4)nc23)cc1 [Compound 70, 3-(4-Fluorophenyl)-N-((3-fluoropyridin-2-yl)methyl)-5-phenylpyrazolo[1,5-a]pyrimidin-7-amine] | > 32 | > 32 | >32 | 165 to 168 |  |  |  |  |  |  | 
23 | Fc1ccc(-c2cnn3c(NCc4ncccc4Br)cc(-c4ccccc4)nc23)cc1 [Compound 71, N-((3-Bromopyridin-2-yl)methyl)-3-(4-fluorophenyl)-5-phenylpyrazolo[1,5-a]pyrimidin-7-amine] | > 32 | > 32 | >32 | 189 to 191 |  |  |  |  |  |  | 
24 | N#Cc1cccnc1CNc1cc(-c2ccccc2)nc2c(-c3ccc(F)cc3)cnn12 [Compound 72, 2-(((3-(4-Fluorophenyl)-5-phenylpyrazolo[1,5-a]pyrimidin-7-yl)amino)methyl)nicotinonitrile] | > 32 | > 32 | >32 | 241 to 244 |  |  |  |  |  |  | 
